The record followed here is ChEMBL document CHEMBL1641586, “Stereospecific synthesis and structure-activity relationships of unsymmetrical 4,4-diphenylbut-3-enyl derivatives of nipecotic acid as GAT-1 inhibitors” (Bioorg Med Chem Lett, 2011).

Where only a bound is given, the exact number is not on record here.

Cytochrome P450 2C19, sequence (P33261 whole entry): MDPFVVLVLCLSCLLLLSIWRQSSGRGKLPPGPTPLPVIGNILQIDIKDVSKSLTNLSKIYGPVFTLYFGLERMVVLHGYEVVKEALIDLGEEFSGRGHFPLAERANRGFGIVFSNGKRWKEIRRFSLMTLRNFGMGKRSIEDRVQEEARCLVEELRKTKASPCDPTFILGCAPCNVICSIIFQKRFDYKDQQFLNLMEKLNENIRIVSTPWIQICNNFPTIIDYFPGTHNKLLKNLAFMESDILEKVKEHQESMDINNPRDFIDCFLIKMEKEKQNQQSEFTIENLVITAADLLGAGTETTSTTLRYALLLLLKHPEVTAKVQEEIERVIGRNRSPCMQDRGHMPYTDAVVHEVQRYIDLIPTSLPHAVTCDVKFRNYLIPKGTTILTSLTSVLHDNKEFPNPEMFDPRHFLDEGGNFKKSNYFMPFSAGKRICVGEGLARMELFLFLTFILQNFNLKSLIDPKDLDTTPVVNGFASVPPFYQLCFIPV

The target of one assay is Cytochrome P450 2C9 (Homo sapiens, UniProt P11712). The assay can be described thus: Inhibition of CYP2C9. Format: ADME.
Cytochrome P450 2C9, sequence (P11712 whole entry): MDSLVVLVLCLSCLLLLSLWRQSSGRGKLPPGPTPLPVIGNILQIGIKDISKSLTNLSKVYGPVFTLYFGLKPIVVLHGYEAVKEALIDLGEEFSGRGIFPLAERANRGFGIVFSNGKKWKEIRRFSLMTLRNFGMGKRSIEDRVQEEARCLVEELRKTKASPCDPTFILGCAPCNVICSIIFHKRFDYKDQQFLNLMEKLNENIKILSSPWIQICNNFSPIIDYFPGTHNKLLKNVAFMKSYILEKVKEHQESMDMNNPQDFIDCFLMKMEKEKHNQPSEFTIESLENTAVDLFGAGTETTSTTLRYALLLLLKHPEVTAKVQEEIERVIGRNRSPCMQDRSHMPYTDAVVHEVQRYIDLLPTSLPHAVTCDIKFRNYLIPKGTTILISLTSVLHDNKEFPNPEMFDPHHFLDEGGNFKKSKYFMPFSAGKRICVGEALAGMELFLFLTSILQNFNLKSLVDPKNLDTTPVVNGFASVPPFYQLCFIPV
What is called IC50 is the concentration needed to halve the response being measured. A higher IC50 goes with weaker potency. Take `Cc1ccccc1/C(=C\CCN1CCC[C@@H](C(=O)O)C1)c1ccccc1F`: the IC50 was greater than 10000 nM.

A further assay addresses T1, Sodium- and chloride-dependent betaine transporter (Homo sapiens, UniProt P48065).
T1 sequence (P48065 whole entry): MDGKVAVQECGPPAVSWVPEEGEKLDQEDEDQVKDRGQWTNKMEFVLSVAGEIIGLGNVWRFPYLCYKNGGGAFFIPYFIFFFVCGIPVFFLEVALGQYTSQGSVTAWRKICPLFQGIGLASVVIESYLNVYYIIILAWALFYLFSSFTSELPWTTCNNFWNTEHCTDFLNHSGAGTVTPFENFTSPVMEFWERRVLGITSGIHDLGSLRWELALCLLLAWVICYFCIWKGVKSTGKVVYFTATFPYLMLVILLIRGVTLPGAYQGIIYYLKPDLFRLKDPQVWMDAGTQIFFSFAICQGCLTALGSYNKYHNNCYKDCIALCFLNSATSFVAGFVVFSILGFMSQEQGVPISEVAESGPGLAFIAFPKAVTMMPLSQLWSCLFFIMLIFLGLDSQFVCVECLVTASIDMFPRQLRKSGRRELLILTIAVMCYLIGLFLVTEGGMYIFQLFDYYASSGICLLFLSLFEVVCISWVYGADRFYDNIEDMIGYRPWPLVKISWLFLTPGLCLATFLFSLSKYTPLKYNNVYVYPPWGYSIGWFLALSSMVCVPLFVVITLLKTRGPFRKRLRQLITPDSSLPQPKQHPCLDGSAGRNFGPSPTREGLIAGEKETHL
The assay can be described thus: Inhibition of BGT1.
In the case of `Cc1ccccc1/C(=C\CCN1CCC[C@@H](C(=O)O)C1)c1ccccc1F`, the IC50 was greater than 100000 nM.

The target of another assay is T2, Sodium- and chloride-dependent GABA transporter 2 (Homo sapiens, UniProt Q9NSD5).
T2 sequence (Q9NSD5 whole entry): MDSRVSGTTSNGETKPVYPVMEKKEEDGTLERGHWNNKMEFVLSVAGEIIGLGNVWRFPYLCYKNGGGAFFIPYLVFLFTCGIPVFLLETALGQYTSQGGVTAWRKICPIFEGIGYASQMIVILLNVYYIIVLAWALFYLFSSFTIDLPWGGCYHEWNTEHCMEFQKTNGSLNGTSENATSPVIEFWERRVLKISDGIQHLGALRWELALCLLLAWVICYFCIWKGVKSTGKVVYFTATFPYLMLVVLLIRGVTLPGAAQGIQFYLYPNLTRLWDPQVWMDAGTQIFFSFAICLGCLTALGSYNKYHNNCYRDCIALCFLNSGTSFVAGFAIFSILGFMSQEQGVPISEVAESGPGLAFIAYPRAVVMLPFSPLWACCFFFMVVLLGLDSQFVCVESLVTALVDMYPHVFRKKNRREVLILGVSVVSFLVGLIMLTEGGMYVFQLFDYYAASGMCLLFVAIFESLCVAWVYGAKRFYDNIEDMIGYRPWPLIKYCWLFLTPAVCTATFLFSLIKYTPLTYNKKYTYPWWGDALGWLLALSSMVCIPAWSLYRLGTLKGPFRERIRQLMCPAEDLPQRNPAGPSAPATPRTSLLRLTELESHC
The assay can be described thus: Inhibition of GAT2.
`Cc1ccccc1/C(=C\CCN1CCC[C@@H](C(=O)O)C1)c1ccccc1F`: the IC50 is greater than 100000 nM.

In a further assay the target is Sodium- and chloride-dependent GABA transporter 1 (Homo sapiens, UniProt P30531). The assay can be described thus: Displacement of [3H]Tiagabine from human recombinant GAT1 expressed in HEK293 cells by equilibrium binding assay. Format: cell-based. A general note: Loss of bound radioactivity is the signal in a displacement assay; it reports binding, not function.
Sodium- and chloride-dependent GABA transporter 1, sequence (P30531 whole entry): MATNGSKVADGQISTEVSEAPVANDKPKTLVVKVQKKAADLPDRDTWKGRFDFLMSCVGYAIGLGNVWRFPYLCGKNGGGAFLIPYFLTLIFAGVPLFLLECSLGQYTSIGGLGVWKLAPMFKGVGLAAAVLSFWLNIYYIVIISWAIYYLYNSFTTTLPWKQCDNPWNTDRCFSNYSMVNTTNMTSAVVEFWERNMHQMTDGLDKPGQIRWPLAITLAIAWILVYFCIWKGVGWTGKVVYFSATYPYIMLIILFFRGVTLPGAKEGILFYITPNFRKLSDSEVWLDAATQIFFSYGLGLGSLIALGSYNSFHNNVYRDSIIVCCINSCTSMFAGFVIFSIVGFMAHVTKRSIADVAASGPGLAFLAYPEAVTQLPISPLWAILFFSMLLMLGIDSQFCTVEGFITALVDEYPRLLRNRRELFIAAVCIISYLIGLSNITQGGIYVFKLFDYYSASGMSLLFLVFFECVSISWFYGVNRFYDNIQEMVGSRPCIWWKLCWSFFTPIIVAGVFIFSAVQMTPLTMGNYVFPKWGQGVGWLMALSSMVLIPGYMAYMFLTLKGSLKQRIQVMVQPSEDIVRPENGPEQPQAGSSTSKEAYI
A word on the Ki: it is a dissociation constant, usually derived from enzyme kinetics or from competition with a known ligand. In the case of `Cc1ccccc1/C(=C\CCN1CCC[C@@H](C(=O)O)C1)c1ccccc1F`, the Ki was 14.8 nM.

Take `O=C(O)[C@@H]1CCCN(CC/C=C(\c2ccccc2)c2ccccc2F)C1`: the Ki was 372 nM. On the same count and under the same terms, then `O=C(O)[C@@H]1CCCN(CC/C=C(\c2ccccc2)c2ccccc2Cl)C1`, with 166 nM.

Regarding `O=C(O)[C@@H]1CCCN(CC/C=C(\c2ccccc2)c2ccccc2Br)C1`, the inhibition constant (Ki) is 200 nM. Still for that read-out and setting: the same measure for `O=C(O)[C@@H]1CCCN(CC/C=C(\c2ccccc2)c2ccccc2C(F)(F)F)C1`: 1910 nM; for `Cc1ccccc1/C(=C/CCN1CCC[C@@H](C(=O)O)C1)c1ccccc1`: 93.3 nM. Same read-out and setting: the same measure for `CCc1ccccc1/C(=C/CCN1CCC[C@@H](C(=O)O)C1)c1ccccc1`: 102 nM; for `O=C(O)[C@@H]1CCCN(CC/C=C(\c2ccccc2)c2ccccc2-c2ccccc2)C1`: 676 nM; for `COc1ccccc1/C(=C/CCN1CCC[C@@H](C(=O)O)C1)c1ccccc1`: 372 nM. Same read-out and setting: the same measure for `O=C(O)[C@@H]1CCCN(CC/C=C(\c2ccccc2)c2ccccc2OC(F)(F)F)C1`: 646 nM; for `O=C(O)[C@@H]1CCCN(CC/C=C(\c2ccccc2)c2c(F)cccc2F)C1`: 692 nM; for `Cc1cc(F)ccc1/C(=C/CCN1CCC[C@@H](C(=O)O)C1)c1ccccc1`: 380 nM.

As to `O=C(O)[C@@H]1CCCN(CC/C=C(/c2ccccc2)c2ccccc2F)C1`, the Ki was 69.2 nM. On the same count and under the same terms, then `O=C(O)[C@@H]1CCCN(CC/C=C(/c2ccccc2)c2ccccc2Cl)C1`, with 40.7 nM; and `O=C(O)[C@@H]1CCCN(CC/C=C(/c2ccccc2)c2ccccc2Br)C1`, with 28.8 nM. As for `O=C(O)[C@@H]1CCCN(CC/C=C(/c2ccccc2)c2ccccc2C(F)(F)F)C1`, the Ki was 93.3 nM. Same read-out and setting: the same measure for `Cc1ccccc1/C(=C\CCN1CCC[C@@H](C(=O)O)C1)c1ccccc1`: 20.4 nM; for `CCc1ccccc1/C(=C\CCN1CCC[C@@H](C(=O)O)C1)c1ccccc1`: 29.5 nM; for `O=C(O)[C@@H]1CCCN(CC/C=C(/c2ccccc2)c2ccccc2-c2ccccc2)C1`: 1070 nM.

With `COc1ccccc1/C(=C\CCN1CCC[C@@H](C(=O)O)C1)c1ccccc1`, the Ki was 56.2 nM. On the same count and under the same terms, then `O=C(O)[C@@H]1CCCN(CC/C=C(/c2ccccc2)c2ccccc2OC(F)(F)F)C1`, with 58.9 nM; and `O=C(O)[C@@H]1CCCN(CC/C=C(/c2ccccc2)c2c(F)cccc2F)C1`, with 331 nM. As for `Cc1cc(F)ccc1/C(=C\CCN1CCC[C@@H](C(=O)O)C1)c1ccccc1`, the Ki is 33.9 nM. For `Cc1cccc(C)c1/C(=C\CCN1CCC[C@@H](C(=O)O)C1)c1ccccc1`, the Ki was 77.6 nM. As for `Cc1ccccc1/C(=C/CCN1CCC[C@@H](C(=O)O)C1)c1ccccc1F`, the Ki was 72.4 nM. Still for that read-out and setting: the same measure for `CCc1ccccc1/C(=C/CCN1CCC[C@@H](C(=O)O)C1)c1ccccc1F`: 89.1 nM; for `O=C(O)[C@@H]1CCCN(CCC=C(c2ccccc2F)c2ccccc2F)C1`: 46.8 nM; for `O=C(O)[C@@H]1CCCN(CC/C=C(\c2ccccc2F)c2ccccc2Cl)C1`: 158 nM. On the same count and under the same terms, then `O=C(O)[C@@H]1CCCN(CC/C=C(\c2ccccc2F)c2ccccc2C(F)(F)F)C1`, with 355 nM.

In the case of `Cc1ccccc1/C(=C\CCN1CCC[C@@H](C(=O)O)C1)c1ccccc1Cl`, the Ki was 61.7 nM. The same measure, in the same setting: the same measure for `Cc1ccccc1/C(=C\CCN1CCC[C@@H](C(=O)O)C1)c1ccccc1C(F)(F)F`: 380 nM; for `COc1ccccc1/C(=C/CCN1CCC[C@@H](C(=O)O)C1)c1ccccc1C`: 70.8 nM; for `Cc1ccccc1C(=CCCN1CCC[C@@H](C(=O)O)C1)c1ccccc1C`: 41.7 nM. On the same count and under the same terms, then `CCc1ccccc1/C(=C\CCN1CCC[C@@H](C(=O)O)C1)c1ccccc1F`, with 38 nM; and `O=C(O)[C@@H]1CCCN(CC/C=C(/c2ccccc2F)c2ccccc2Cl)C1`, with 18.2 nM.

With `O=C(O)[C@@H]1CCCN(CC/C=C(/c2ccccc2F)c2ccccc2Br)C1`, the Ki was 21.9 nM. Same read-out and setting: the same measure for `O=C(O)[C@@H]1CCCN(CC/C=C(/c2ccccc2F)c2ccccc2OC(F)(F)F)C1`: 52.5 nM; for `COc1ccccc1/C(=C\CCN1CCC[C@@H](C(=O)O)C1)c1ccccc1F`: 53.7 nM. As for `Cc1cc(F)ccc1/C(=C\CCN1CCC[C@@H](C(=O)O)C1)c1ccccc1F`, the Ki is 19.1 nM. Same read-out and setting: the same measure for `Cc1cc(F)ccc1/C(=C\CCN1CCC[C@@H](C(=O)O)C1)c1ccccc1C(F)(F)F`: 38.9 nM; for `Cc1ccc(C(=CCCN2CCCC(F)(C(=O)O)C2)c2ccc(C)s2)s1` (configuration not stated): 138 nM; for `O=C(O)C1(F)CCCN(CCC=C(c2ccccc2)c2ccccc2)C1` (configuration not stated): 832 nM. Take `CC(=O)[C@@H]1CC[C@H]2CC[C@@H]1N2CCC=C(c1ccccc1)c1ccccc1`: the Ki is 2750 nM. The same measure, in the same setting: then `Cc1ccc(C(=CCCN2CCOC(C(=O)O)C2)c2ccc(C)s2)s1` (configuration not stated), with greater than 10000 nM; and `Cc1ccc(C(=CCCN(C)[C@H]2CCC[C@@H]2C(=O)O)c2ccc(C)s2)s1`, with greater than 10000 nM.

`Cc1ccc(C(=CCCN(C)[C@H]2CCCC[C@@H]2C(=O)O)c2ccc(C)s2)s1`: the Ki was greater than 10000 nM. On the same count and under the same terms, the same measure for `Cc1ccc(C(=CCCN2C[C@@H]3[C@H](C2)[C@@H]3C(=O)O)c2ccc(C)s2)s1`: greater than 10000 nM; for `Cc1ccc(C(=CCCN2C[C@@H]3[C@H](C2)[C@H]3C(=O)O)c2ccc(C)s2)s1`: greater than 10000 nM; for `Cc1ccc(C(=CCCN2CC[C@@H]3[C@H](C2)[C@@H]3C(=O)O)c2ccc(C)s2)s1`: greater than 10000 nM. The same measure, in the same setting: the same measure for `Cc1ccc(C(=CCCN2CC[C@H]3[C@@H](C2)[C@@H]3C(=O)O)c2ccc(C)s2)s1`: greater than 10000 nM.

Another assay concerns the target Cytochrome P450 2C19 (Homo sapiens, UniProt P33261). The assay can be described thus: Inhibition of CYP2C19. Format: ADME.
Take `Cc1ccccc1/C(=C\CCN1CCC[C@@H](C(=O)O)C1)c1ccccc1F`: the IC50 is greater than 10000 nM.

A further assay concerns the target T3, Cytochrome P450 1A2 (Homo sapiens, UniProt P05177).
T3 sequence (P05177 whole entry): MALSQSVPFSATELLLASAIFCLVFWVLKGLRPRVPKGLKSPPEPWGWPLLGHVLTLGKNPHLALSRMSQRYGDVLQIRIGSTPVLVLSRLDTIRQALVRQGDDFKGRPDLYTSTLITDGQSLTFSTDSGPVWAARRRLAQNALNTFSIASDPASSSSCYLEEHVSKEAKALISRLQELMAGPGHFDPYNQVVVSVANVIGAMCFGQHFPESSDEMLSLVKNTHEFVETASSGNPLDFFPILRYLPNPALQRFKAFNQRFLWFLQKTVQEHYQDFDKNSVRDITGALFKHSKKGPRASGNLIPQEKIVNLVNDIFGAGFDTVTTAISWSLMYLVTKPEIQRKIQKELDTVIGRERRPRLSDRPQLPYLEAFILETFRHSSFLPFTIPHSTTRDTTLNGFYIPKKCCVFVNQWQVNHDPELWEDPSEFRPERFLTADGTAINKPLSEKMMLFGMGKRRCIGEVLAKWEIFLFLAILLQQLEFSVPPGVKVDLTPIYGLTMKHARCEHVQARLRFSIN
Kind of assay: Inhibition of CYP1A2. It counts as ADME.
For the molecule `Cc1ccccc1/C(=C\CCN1CCC[C@@H](C(=O)O)C1)c1ccccc1F`, the IC50 was greater than 10000 nM.

The next assay deals with T4, Sodium- and chloride-dependent GABA transporter 3 (Homo sapiens, UniProt P48066).
T4 sequence (P48066 whole entry): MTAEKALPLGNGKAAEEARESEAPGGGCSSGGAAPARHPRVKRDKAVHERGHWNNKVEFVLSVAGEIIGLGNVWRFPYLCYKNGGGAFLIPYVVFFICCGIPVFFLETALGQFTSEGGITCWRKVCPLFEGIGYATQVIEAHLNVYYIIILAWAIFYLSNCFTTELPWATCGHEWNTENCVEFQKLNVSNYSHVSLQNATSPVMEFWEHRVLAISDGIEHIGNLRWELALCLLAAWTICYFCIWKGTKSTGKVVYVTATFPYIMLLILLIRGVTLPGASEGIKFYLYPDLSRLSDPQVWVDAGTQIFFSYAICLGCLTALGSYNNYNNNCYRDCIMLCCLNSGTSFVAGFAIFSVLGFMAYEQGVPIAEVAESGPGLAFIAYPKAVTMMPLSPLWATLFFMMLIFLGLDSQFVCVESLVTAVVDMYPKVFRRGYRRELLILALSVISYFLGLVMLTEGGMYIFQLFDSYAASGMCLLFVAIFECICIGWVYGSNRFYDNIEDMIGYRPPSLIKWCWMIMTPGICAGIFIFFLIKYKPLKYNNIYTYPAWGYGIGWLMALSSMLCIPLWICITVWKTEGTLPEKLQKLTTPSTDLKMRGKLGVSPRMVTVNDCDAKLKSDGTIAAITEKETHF
Kind of assay: Inhibition of GAT3.
The molecule `Cc1ccccc1/C(=C\CCN1CCC[C@@H](C(=O)O)C1)c1ccccc1F` gave an IC50 greater than 100000 nM.

A further assay deals with Cytochrome P450 3A4 (Homo sapiens, UniProt P08684). The assay can be described thus: Inhibition of CYP3A4. It counts as ADME.
Cytochrome P450 3A4, sequence (P08684 whole entry): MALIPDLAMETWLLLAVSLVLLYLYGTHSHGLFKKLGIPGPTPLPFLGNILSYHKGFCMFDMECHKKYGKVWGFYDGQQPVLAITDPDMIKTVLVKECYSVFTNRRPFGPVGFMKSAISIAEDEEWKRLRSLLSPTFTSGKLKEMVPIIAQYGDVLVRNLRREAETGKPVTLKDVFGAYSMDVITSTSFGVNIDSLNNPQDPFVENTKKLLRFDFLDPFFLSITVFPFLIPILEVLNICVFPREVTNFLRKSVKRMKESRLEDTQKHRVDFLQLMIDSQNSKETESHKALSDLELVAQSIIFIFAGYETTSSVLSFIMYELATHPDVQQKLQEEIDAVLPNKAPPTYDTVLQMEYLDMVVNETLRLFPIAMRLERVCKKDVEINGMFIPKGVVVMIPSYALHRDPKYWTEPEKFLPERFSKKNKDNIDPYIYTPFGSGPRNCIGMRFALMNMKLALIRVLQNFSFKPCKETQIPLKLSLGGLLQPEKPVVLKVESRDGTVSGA
`Cc1ccccc1/C(=C\CCN1CCC[C@@H](C(=O)O)C1)c1ccccc1F`: the IC50 is greater than 10000 nM.
